Structures are written as SMILES.

The first data set is described as follows: method code SF-AS, from DOI: 10.1016/s0021-9673(00)94589-8, PMID: 3356765.
As usually defined, the logP is the decadic logarithm of the partition coefficient of the neutral form, usually between octanol and water. Low values mean lower lipophilicity, high ones higher lipophilicity. `CCc1ccc(NC(=O)OC)cc1` yielded a lipophilicity (logP) of 2.72. As to `COC(=O)Nc1ccccc1Br`, the logP stood at 2.25. Regarding `CCOc1ccccc1NC(=O)OC`, the logP was determined as 2.4. The same measure, in the same setting: in the case of `COC(=O)Nc1cccc(C#N)c1` it was 1.77; in that of `COC(=O)Nc1ccccc1[N+](=O)[O-]`, 2.07; in that of `COC(=O)Nc1ccccc1OC`, 1.84. Compound `CCOc1ccc(NC(=O)OC(C)C)cc1OCC` yielded a log partition coefficient (logP) of 2.82.

Compound `COC(=O)Nc1cccc(C(C)=O)c1` yielded a logP of 1.63. The same measure, in the same setting: in the case of `COC(=O)Nc1cccc(C(F)(F)F)c1` it was 2.74; in that of `CCOc1ccc(NC(=O)OCCC#N)cc1OCC`, 2.13; in that of `COC(=O)Nc1cccc(OC)c1`, 1.92. Same read-out and setting: with `COC(=O)Nc1cccc([N+](=O)[O-])c1` the figure was 1.95; with `CCCCc1ccc(NC(=O)OC)cc1`, 3.68. The same measure, in the same setting: with `COC(=O)Nc1ccc(C)cc1` the figure was 2.27.

Turning to `COC(=O)Nc1ccccc1C`, the logP was 1.69.

On to `C#CCOC(=O)Nc1ccc(OCC)c(OCC)c1`, for which the log partition coefficient (logP) is 2.68.

Take `CCc1cccc(NC(=O)OC)c1`: the logP is 2.72.

Regarding `COC(=O)Nc1ccccc1F`, the log partition coefficient (logP) came out at 1.66. On the same count and under the same terms, in the case of `COC(=O)Nc1cccc(C)c1` it was 2.22.

For the compound `COC(=O)Nc1ccccc1C(F)(F)F`, the lipophilicity (logP) is 2.09. Same read-out and setting: with `CCOc1ccc(NC(=O)OC)cc1` the figure was 2.11.

Experiment in another data set: not given
Compound `CCOc1cccc(NC(=O)OC)c1` showed a log partition coefficient (logP) of 2.28. Same read-out and setting: in the case of `COC(=O)Nc1ccc([N+](=O)[O-])cc1` it was 1.98.

Turning to `COC(=O)Nc1ccccc1Cl`, the lipophilicity (logP) amounted to 2.19. `COC(=O)Nc1cccc(F)c1`: the logP was 2.17.

`CCOc1ccc(NC(=O)OC2CCCC2)cc1OCC` gave a logP of 3.41. Still for that read-out and setting: in the case of `CCCCOC(=O)Nc1ccc(OCC)c(OCC)c1` it was 3.35; in that of `C=CCOC(=O)Nc1ccc(OCC)c(OCC)c1`, 2.74; in that of `COC(=O)Nc1ccc(C#N)cc1`, 1.67. Regarding `COC(=O)Nc1ccc(F)cc1`, the logP came to 2.02. Still for that read-out and setting: with `COC(=O)Nc1cccc(Cl)c1` the figure was 2.59; with `CCCOC(=O)Nc1ccc(OCC)c(OCC)c1`, 2.97; with `CCOc1ccc(NC(=O)OC(CBr)CBr)cc1OCC`, 3.39. On the same count and under the same terms, in the case of `CCOC(=O)Nc1ccc(OCC)c(OCC)c1` it was 2.58; in that of `COC(=O)Nc1ccccc1I`, 2.36; in that of `CCOc1ccc(NC(=O)OCC(C)C)cc1OCC`, 3.33. Still for that read-out and setting: with `COC(=O)Nc1ccc(Cl)cc1` the figure was 2.52. Consider `COC(=O)Nc1cccc(Br)c1`, for which the logP came to 2.71. Take `CCOc1ccc(NC(=O)OC)cc1OCC`: the log partition coefficient (logP) was found to be 2.2.

In turn, `CCOc1ccc(NC(=O)OCCOC)cc1OCC` displayed a logP of 2.22. Compound `COC(=O)Nc1ccc(OC)cc1` came in with a logP of 1.77. `COC(=O)Nc1cccc(I)c1` showed a logP of 2.88. As to `CCOc1ccc(NC(=O)OCc2ccccc2)cc1OCC`, the logP came out at 3.32.

Source of the values: the SangsterLogP compilation.
